Measured values: patent US10034828B2, “Hair treatment systems and methods using peptides and other compositions” (priority 2013, dated 2018)

Columns and labels:
[1] = Nitric oxide absorption by carriers (weight gain on bubbling NO gas); type: physicochemical; conditions: NO gas bubbled 40 hr, 25 ° C.
Description: This example illustrates one technique for preparing a composition in accordance with one embodiment of the invention. An accurate amount of a carrier (HNC 167-62) (see below) was introduced into a system. The carrier weight used in these experiments was approximately 250 g and the vessel size was 500 ml. The vessel was equipped with a mechanical stirrer, gas inlet, and gas outlet and was previously purged with argon for about an hour. The temperature of the carrier was kept at about 25-30° C. NO gas regulated at 5 psi (1 psi is about 6,900 Pa) and was then introduced at a controlled rate of about 1 bubble/s with continuous stirring. […] After 6 hours, the weight of the carrier had increased by 0.15%, by 12 hours by 0.25%, and by 24 hours by 0.56%. These increases in weight were believed to be significant considering the relative small molecular weight of NO versus the carrier. […] The carrier also can solidify upon cooling if the carrier is initially a solid at lower temperature.
Each carrier was taken in a 500 mL three necked flask equipped with a mechanical stirrer, gas inlet and a gas outlet. The system was purged with argon for one hour at room temperature (25° C.). Then nitric oxide gas was bubbled into the system. Then, nitric oxide gas was bubbled through carrier for stipulated amount of time. The changes in weight and color were noted. […]

[2] = Carrying of TRH peptide by carrier formulations; type: physicochemical; conditions: TRH concentration of 5.0 mg/cc
From the text: Any of the above compositions are effective as carriers for peptides and nitric oxide.

[3] = tested on: micro-capillary blood flow to skin; test: Laser Doppler capillary blood flow in humans, 10,000 ppm NO in closed Hilltop chamber (Example 5); type: in vivo, human; conditions: applied to the skin at 1/10% in alcohol
From the text: The formulation used in these studies contained nitric oxide dispersed in a lipid matrix. […] Nitric oxide is a very rapid acting molecule, and these studies used a system that employed laser Doppler with a covered chamber. The formulation was placed into the chamber and then attached to the skin by an adhesive layer on the covering. This provided a stable measuring device as determined by multiple normal evaluations of the capillary blood flow without treatment of nitric oxide.
A known positive control, methyl nicotinate, was applied to the skin at a concentration of 1/10% in alcohol. […] The vascular dynamics are such that when the blood vessels dilate physical parameters follow Bernoulli's law. […] The laser Doppler device accurately measured these parameters.
In these studies, the participants were healthy females aged 30 to 55 years. They were in good health as determined by the medical history and were not taking any prescription medications. All study participants read and signed the informed consent statement prior to any study procedures being performed. […]
A Moor Instruments DRT4 Laser Doppler Blood Flow Monitor (Devon, England) was used in these studies. The laser Doppler technique measured blood flow in the microcapillaries of the skin that are close to the skin surface and the blood flow in underlying arterioles and venules that help to regulate skin temperature. […]

[4] = tested on: capillary circulation of the skin; test: Laser Doppler circulation study in five human subjects (Example 8); type: in vivo; conditions: positive control formulation containing 0.1% methyl nicotinate
From the text: This example illustrates delivery of nitric oxide formulations to five human subjects, using procedures and formulations similar to those discussed in Example 5. Each person served as their own control for the testing. A Moor Instruments Laser Doppler was used to determine circulation. […] The formulations used produce positive, almost immediate results when applied to the skin which, in these studies, was manifested by vasodilatation of the cutaneous vascular system.
For each subject, the following creams were applied: a negative control formulation (containing no NO), 0.010 gram of a 10,000 ppm NO formulation, 0.020 gram of a 10,000 ppm NO formulation, and a positive control formulation containing 0.1% methyl nicotinate. The formulations were prepared using procedures similar to those discussed in Example 1.

OCCCO [1,3-Propanediol, 1,3-propanediol]
% Wt. gain [1]: 0.09%
Wt. Gain g [1]: 0.16 g

NC(=O)[C@@H]1CCCN1C(=O)[C@H](Cc1cnc[nH]1)NC(=O)[C@@H]1CCC(=O)N1 [TRH, thyrotropin-releasing hormone]
carrying of the peptide by formulations HNC 156-43, HNC 156-50, HNC 156-47, HNC 159-136 [2]: effectively carried

COC(=O)c1cccnc1 [methyl nicotinate]
laser Doppler response to positive control [3]: rapid response typical of the vasodilator
vasodilatation [4]: vasodilatation was observed
